Starred links: 1 amine or outer side, 2 acyl side, 3 side chain; linkers in the order of their positions; H or OH if unused. Positions of bridges follow the written chain, without caps; N, C: chain ends. Non-standard residues stand in square brackets, D forms with d. Residues, ends and D or L forms follow the SMILES beside them. *: point of attachment. pTerphenylCO(4''-OnC5H11) = CCCCCOc1ccc(-c2ccc(-c3ccc(C(=O)*)cc3)cc2)cc1; Orn(4R-OH,5R-OH) = O=C([C@H](C[C@@H](O)[C@@H](O)N[*:3])N[*:1])[*:2]; hTyr(3S-OH,4S-OH) = N[C@H](C(=O)O)[C@H](O)[C@@H](O)c1ccc(O)cc1; Pro(3S-OH,4S-Me) = C[C@H]1CN[C@H](C(=O)O)[C@H]1O; Hyp = O=C(O)[C@@H]1C[C@@H](O)CN1
Assays:
[1] = cited from earlier work
[2] = mice; cited from earlier work
[3] = parameters: species or system male pigmented Long-Evans rats; settings: rat, in vivo
Protocol: As a first step of the feasibility evaluation, the tissue distribution of SCY-078 was evaluated in an animal model. […] WH rats were used for mass balance and pharmacokinetic (PK) determinations after i.v. and oral doses, and both WH and LE rats were used for Quantitative whole-body autoradiography (QWBA) determinations. Dose levels were selected to reflect the clinically relevant 11.2-μg·h/ml target exposure for Candida spp. infections. The concentration, homogeneity, radio purity, and stability of dosing formulations were confirmed to be acceptable before dosing. For QWBA whole-body sections (˜40 μm thick via Leica CM3600 cryomicrotome; Nussloch, Germany), where all major tissues, organs, and biological fluids were represented, sections were exposed for phosphor imaging (Fuji Biomedical, Stamford, Conn.) together with calibration standards. […] Quantification was performed by image densitometry with MCID image analysis software (v. 7.0; Interfocus Imaging Ltd., Linton, Cambridge, UK), and a standard curve was constructed from the integrated response (molecular dynamics counts [MDC]/mm2) and the nominal concentrations of the 14C-calibration standards. The concentrations of radioactivity were expressed as [14C]SCY-078 μg equiv/g tissue. The lower limit of quantitation was 0.024 and 0.049 μg equiv/g of tissue for i.v. and oral doses of SCY-078, respectively. […]

[4] = test system: Candida albicans spondylodiscitis; format: in vivo, human; settings: Example A: person, Candida albicans spondylodiscitis L4/L5; oral 750 mg BID 2 days then 750 mg QD (citrate salt tablets); 277 days of treatment
Text: (§1) This example presents treatment courses of two patients with Candida spondylodiscitis who were enrolled in an “Open-Label Study to Evaluate Efficacy and Safety of SCY-078 in Patients With Refractory or Intolerant Fungal Diseases (FURI)” (clinicaltrials.gov identifier NCT03059992).
(§2) Objective: The objective of the study is to evaluate the efficacy of orally administered SCY-078 for the treatment of fungal infections that are refractory to or intolerant of approved antifungal agents.
(§3) Study design: This is a multicenter, open-label, non-comparator, single-arm study to evaluate the efficacy, safety, and pharmacokinetics (PK) of SCY-078 (administered as the citrate salt) in male and female subjects≥18 years of age with documented invasive and/or severe candidiasis that has been refractory to or intolerant of, or has shown toxicities associated with standard of care (SoC) antifungal treatment. Subjects must have a documented eligible acute or chronic invasive candidiasis (including candidemia) and meet all study criteria to be considered for enrollment. […]
(§4) Efficacy: Efficacy will be assessed primarily in terms of global success (both clinical success and mycological success). Complete global response, partial global response, clinical success, and mycological success will also be assessed. […]

[5] = test system: Candida tropicalis spondylodiscitis; format: in vivo, human; settings: Example B: person, Candida tropicalis spondylodiscitis L5/S1; oral 750 mg BID 2 days then 750 mg QD (citrate salt tablets); 88 days of treatment
Text: as §1, §2, §3, §4

[6] = test system: Candida and non-Candida isolates causing fungaemia; settings: 178 Candida and non-Candida isolates causing fungaemia; EUCAST E Def 7.3 and CLSI M27-A3; cited from earlier work
[7] = test system: sessile (biofilm) forms of Candida and non-Candida isolates; settings: XTT reduction assay, confirmed by scanning electron microscopy; cited from earlier work

For `CCCCCOc1ccc(-c2ccc(-c3ccc(C(=O)N[C@H]4C[C@@H](O)[C@@H](O)NC(=O)[C@@H]5[C@@H](O)[C@@H](C)CN5C(=O)[C@H]([C@@H](C)O)NC(=O)[C@H]([C@H](O)[C@@H](O)c5ccc(O)cc5)NC(=O)[C@@H]5C[C@@H](O)CN5C(=O)[C@H]([C@@H](C)O)NC4=O)cc3)cc2)cc1` [anidulafungin] ({pTerphenylCO(4''-OnC5H11)}-[Orn(4R-OH,5R-OH)]T[Hyp][hTyr(3S-OH,4S-OH)]T[Pro(3S-OH,4S-Me)]; lactam 1-C), the bone/plasma concentration ratio ([1]; neonatal rats after a single dose) is given as 0.21 and the “skeletal muscle concentrations compared with plasma” value ([1]; rats) is given as “comparable to those in plasma”.
In the case of `CC[C@H](C)C[C@H](C)CCCCCCCCC(=O)N[C@H]1C[C@@H](O)[C@@H](NCCN)NC(=O)[C@@H]2[C@@H](O)CCN2C(=O)[C@H]([C@H](O)CCN)NC(=O)[C@H]([C@H](O)[C@@H](O)c2ccc(O)cc2)NC(=O)[C@@H]2C[C@@H](O)CN2C(=O)[C@H]([C@@H](C)O)NC1=O` [caspofungin], the “skeletal muscle concentrations as % of those in plasma” value [2] is listed as “less than 50%”.
In the case of `CC(C)[C@@H](C)[C@@]1(C)CC[C@]2(C)[C@H]3CC[C@@H]4[C@@]5(COC[C@@]4(C)[C@@H](OC[C@](C)(N)C(C)(C)C)[C@H](n4ncnc4-c4ccncc4)C5)C3=CC[C@@]2(C)[C@@H]1C(=O)O` [SCY-078, (1S,4aR,6aS,7R,8R,10aR,10bR,12aR,14R,15R)-15-[[(2R)-2-amino-2,3,3-trimethylbutyl]oxy]-8-[(1R)-1,2-dimethylpropyl]-14-[5-(4-pyridinyl)-1H-1,2,4-triazol-1-yl]-1,6,6a,7,8,9,10,10a,10b,11,12,12a-dodecahydro-1,6a,8,10a-tetramethyl-4H-1,4a-propano-2H-phenanthro[1,2-c]pyran-7-carboxylic acid], the “exposure observed in bone compared with plasma” value [3] is reported as “exceeded the exposure measured in plasma”, the “exposure observed in bone marrow compared with plasma” value [3] is reported as “exceeded the exposure measured in plasma” and the “patient's response to date” value [4] is reported as “improved”. The “patient's response to date” value [5] was “resolved”, the “in vitro activity against planktonic form” value [6] was “potent in vitro activity” and the antibiofilm activity [7] was “activity against the biofilms”.
